Experimental data reported in patent US7186703B2, “Derivatives of branched-chain lipophilic molecules and uses thereof” (D-Pharm Ltd., priority 2000, dated 2007).
Like-named read-outs stand apart in the source and are kept apart here.

Tests used:
C6 gliosarcoma tumor = assay: Anti-tumor activity in C6 glioma-bearing rats, tumor volume (Example 27); type: in vivo, rat; conditions: for anti-tumor effect on glioma growth (in words): rat, in vivo; for Tumor volume (mm^3) ± SE: control 8.1 ± 2.22
Excerpt: The anti-tumor effects of various P-BFAs were studied in the in vivo model system described above in Example 17. Tested P-BFAs were intra-arterially administered at the concentrations previously determined as being effective in permeabilization of the BBB and BTB for Evans blue and Fluorescein extravasation. The experimental procedure for tumor inoculation, as described in Example 23, was followed.
On Day 3–4 following inoculation of the C6 gliosarcoma cells, rat were cannulated through external carotid artery and the tested P-BFAs were infused over 30 seconds, as described in Example 17, except that in this experiment no markers were administered. The treated rats were maintained until Day 7–9, and then sacrificed. Coronal sections were obtained, stained by eosin-hematoxylin, and reviewed histologically to determine tumor volume. Animals treated with vehicle only serve as control. Standard error and Student's test for statistical significance were used.

[1] = type: in vivo; conditions: rats, sodium salt; for LC (minimal concentration that caused death): i.a., viability monitored 24 hours
Protocol: DP-BFA molecules were evaluated for safety and toxicity. Increasing doses of the tested compounds were administered intra-arterially (i.a.) into rats following the protocol described above in Example 17. Animal viability was monitored for 24 hours to evaluate lethal concentrations (LC). LC is defined as the minimal concentration that caused death.
Safety index is defined as the ratio between the lethal dose (LC) and the minimal effective concentration (MEC), wherein MEC corresponds to a calculated concentration of the tested compound that elicits accumulation of three times the amount of Evans blue accumulated in control animals treated with vehicle only, i.e. total accumulation of 3 μg EB. The higher the LC/MEC ratio is, the higher the safety index.

[2] = system: blood brain barrier (BBB); assay: BBB opening in C6 glioma-bearing rats, Evans blue accumulation in non-tumor brain; type: in vivo, Sprague Dawley rats; conditions: concentrations around EC50 (Mannitol 25%), unilateral 30 s infusion
Protocol: In order to study the ability of DP-BFA compounds to modulate blood tumor barrier (BTB), a model system of C6 glioma-bearing rats, was employed.
Sprague Dawley (SD) rats were inoculated with C6 gliosarcoma cells following the procedure described by Bartus et al. (Exp Neurol (1996); 142:14–28). A small burr-hole was made in the frontal scalp bone of the rat fixed in a stereotaxis apparatus. Using a Hamilton syringe, 10 μl or 5 μl of media, containing 2.5×10^5 C6 gliosarcoma cells were inoculated into the frontal cortex. Coordinates were 1 mm posterior of bregma, 2.5 mm—lateral, and 3 mm—depth. The needle remained in the place for 5 min. After removal of the needle, fascia and scalp were sutured. The rats were checked 6–8 days after inoculation, when tumors of sufficient size (20–60 mg) had developed. The tumor was weighed after F—Na visualization and dissection. Parts of the rats' brains were subject to histological examinations and monitored for Evans Blue and Fluorescein uptake into ipsilateral tumour tissue, peritumoural tissue and contralateral tissue.
The bilateral tumor model system of C6 glioma-bearing rats described in Example 23 above was employed for screening of various derivatives of DP-BFA for their ability to permeabilize the blood brain barrier (BBB) in comparison to their effect on the blood tumor barrier (BTB). The experimental procedure described in Example 23 was followed except that the tumor-bearing rats were further treated with DP-BFA. The tested compounds, at concentrations around their EC50 values, were unilaterally infused into the external carotis artery over 30 seconds as described in Example 17. Animals treated with vehicle only serve as a control group. Permeabilization effect was quantitated by measuring accumulation of albumin bound Evans blue dye in tumor (T) versus non-tumor (NT) tissues.
Specificity index is defined as the ratio between the levels of EB accumulated in tumor and those accumulated in non-tumor brain tissues (T/NT).

[3] = system: Primary bronchial epithelial cells; assay: MTT cytotoxicity, normal primary epithelial cells; type: cell-based, human; conditions: Normal primary epithel, three days, read-out: EC50 (50% reduction in cell viability)
Protocol: (§1) The cytotoxic activity of various phospho-derivatives of branched-chain fatty acids (DP-BFAs) was assayed in vitro in cell cultures that include normal and malignant cell types. The following cell systems were used: • Primary fibroblasts (human) • Normal bone marrow (BM) cells (mouse) • Primary bronchial epithelial cells (human, from Clonetics, cat. no. CC-2541) • Caco-2—colon cancer cell line (human, ATTC, HTB-37) • C6 glioma cell line (rat, ATCC, CRL-2199) • Neuro2a—neuroblastoma cell line (mouse, ATCC, CCL-131) • SKBR-3—breast cancer cell line (human, ATTC, HTB-30) • HL60—myeloid leukemia cell line (human, ATCC, CCL-240) • U937—myeloid leukemia cell line (human)
(§2) Cells were seeded in a microtiter plate in MEM containing 2 mM L-glutamine, 100 units/ml penicillin, 100 ug/ml streptomycin and 10% FCS at 37° C. The cultured cells were incubated, during their linear growth phase in the absence (control group) or presence of various DP-BFAs as indicated. The final concentrations of the tested DP-BFAs ranged from 1.5 to 200 microMolars. At the end of the incubation period, which was five days for the bone marrow cells and three days for all the other cell lines, the cytotoxic effect of the added P-BFA on the cells was estimated by using the colorimetric MTT assay. The MTT assay (Mosmann (1983) J. Immunol Methods 65: 55–63) measures mitochondrial reductase activity and serves for quantitative assessment of cellular viability. Drug concentration that causes 50% reduction in cell viability in comparison to the control group, is defined as EC50. The EC50 values of the tested DP-BFA compounds were calculated from dose response curves established for each of the different assayed cell lines.
(§3) Each EC50 value is an average of EC50 values derived from 1–5 independent experiments.

[4] = system: Neuro2a neuroblastoma cell line; assay: MTT cytotoxicity, Neuro2a; type: cell-based, mouse; conditions: three days, read-out: EC50 (50% reduction in cell viability)
Protocol: as §1, §2, §3

C6 glioma cell line = assay: MTT cytotoxicity, C6 glioma; type: cell-based, rat; conditions: three days, read-out: EC50 (50% reduction in cell viability)
Protocol: as §1, §2, §3

Primary fibroblasts = assay: MTT cytotoxicity, normal primary fibroblasts; type: cell-based, human; conditions: three days, read-out: EC50 (50% reduction in cell viability)
Protocol: as §1, §2, §3

[5] = system: HL60 myeloid leukemia cell line; assay: MTT cytotoxicity, HL60; type: cell-based, human; conditions: HL60, three days, read-out: EC50 (50% reduction in cell viability)
Protocol: as §1, §2, §3

[6] = system: U937 myeloid leukemia cell line; assay: MTT cytotoxicity, U937; type: cell-based, human; conditions: U937, three days, read-out: EC50 (50% reduction in cell viability)
Protocol: as §1, §2, §3

[7] = system: SKBR-3 breast cancer cell line; assay: MTT cytotoxicity, SKBR-3; type: cell-based, human; conditions: three days, read-out: EC50 (50% reduction in cell viability)
Protocol: as §1, §2, §3

[8] = system: Caco-2 colon cancer cell line; assay: MTT cytotoxicity, Caco-2; type: cell-based, human; conditions: Caco-2, three days, read-out: EC50 (50% reduction in cell viability)
Protocol: as §1, §2, §3

[9] = system: Normal bone marrow (BM) cells; assay: MTT cytotoxicity, normal bone marrow cells; type: cell-based, mouse; conditions: five days, read-out: EC50 (50% reduction in cell viability)
Protocol: as §1, §2, §3

[10] = Homo sapiens, Primary bronchial epithelial cell, 72 h
[11] = Mus musculus, Bone marrow cell, 120 h

Row | Compound | anti-tumor effect on glioma growth (in words) (C6 gliosarcoma tumor) | LC (minimal concentration that caused death) [1] [µM] | BBB EB μg/g Non-tumor brain [2] [µg/g] | EC50 [3, 10] [µM] | EC50 ([4]; Mus musculus, N2a, 72 h) [µM] | EC50 (Primary fibroblasts; Homo sapiens, Fibroblast, 72 h) [µM] | EC50 ([5]; Homo sapiens, HL-60, 72 h) [µM] | EC50 ([6]; Homo sapiens, U-937, 72 h) [µM] | EC50 ([7]; Homo sapiens, SK-BR-3, 72 h) [µM] | EC50 ([8]; Homo sapiens, 72 h) [µM] | Safety LC/MEC [1] | EC50 [9, 11] [µM] | EC50 [4] [µM] | EC50 [6] [µM] | EC50 [7] [µM] | EC50 [8] [µM] | other results
1 | 2-(4′-Hexadecanoyloxy)ethoxyethyl phosphate [3,12-DEG-PO4] | most pronounced anti-tumor effect | 30 ± 5 | 2.0 ± 0.2 | – | – | – | – | – | – | – | – | – | – | – | – | – | –
2 | CCCCCCCCCCCCC(CCC)C(=O)OCCOCCOP(=O)([O-])OCC[N+](C)(C)C (stereo not shown) [3,12-DEG-PC, 2-(2′-Propyltetradecanoyloxy)ethoxyethylphosphocholine] | – | 300 ± 60 | 5 | 90 | 134 | 170 | 11 | 6 | 40 | 113 | 20 | 166 | – | – | – | – | EC50 (C6 glioma cell line; Rattus norvegicus, 72 h): 95 µM; Tumor volume (mm^3) ± SE (C6 gliosarcoma tumor; P-BFA 60 μM i.a.): 3.9 ± 1.0 mm^3
3 | CCCCCCCCCCCCC(CCC)C(=O)OCCOCCOP(=O)([O-])[O-].[Na+].[Na+] (stereo not shown) [3,12-DEG-PO4Na2, 2-[2′-(2″-Propyltetradecanoyloxy)-ethoxy]ethyl Disodium Phosphate] | – | – | – | – | – | – | – | – | – | – | – | – | 58 | 25 | 60 | 40 | EC50 [3]: > 200 µM; EC50 (C6 glioma cell line): 38 µM; EC50 (Primary fibroblasts): 65 µM; Tumor volume (mm^3) ± SE (C6 gliosarcoma tumor; P-BFA 30 μM i.a.): 1.6 ± 0.4 mm^3; EC50 [9]: 62 µM
4 | CCCCCCCCCCCCC(CCC)C(=O)OCCOP(=O)([O-])OCC[N+](C)(C)C (stereo not shown) [3,12-MEG-PC, 2-(2′-Propyltetradecanoyloxy)ethylphosphocholine] | significant anti-tumor activity | 15 ± 2 | 6 | 94 | 70 | 160 | 20 | 9 | 50 | 75 | 1.5 | 95 | – | – | – | – | Tumor volume (mm^3) ± SE (C6 gliosarcoma tumor; P-BFA 10 μM i.a.): 2.88 ± 0.6 mm^3
5 | CCCCCCCCCCCCC(CCC)C(=O)[O-].[Na+] (stereo not shown) [3,12-Na, reference compound] | – | 40 ± 10 | 43 ± 9 | – | – | – | – | – | – | – | 6.1 | – | 76 | 68 | 130 | 100 | –
6 | CCCCCCCCCCCCC(CCC)OP(=O)([O-])OCC[N+](C)(C)C (stereo not shown) [3,12-PC, 4-Hexadecanyl phosphocholine] | – | 80 ± 16 | 10 ± 2 | – | – | – | – | – | – | – | 3.5 | – | – | – | 62 | 150 | EC50 [5]: 47 µM; Tumor volume (mm^3) ± SE (C6 gliosarcoma tumor; P-BFA 50 μM i.a.): 3.8 ± 0.8 mm^3
